Measurements published in the NIST ThermoML archive (doi:10.1016/j.jct.2019.05.021).

Assay: xn = mol fraction of the nth substance listed
Conditions: 100 kPa, Liquid; for viscosity: Falling or rolling sphere viscometry; for mass density: Vibrating tube method

CCCCCCCCCC(=O)OC [methyl decanoate] + CC1CCCCC1
Conditions	mass density [kg/m3]	viscosity [mPa·s]
293.15 K, x2 = 0	872.25	2.125
293.15 K, x2 = 0.0999	865.57	1.953
293.15 K, x2 = 0.2	858.32	1.783
293.15 K, x2 = 0.3	850.46	1.618
293.15 K, x2 = 0.4001	841.94	1.464
293.15 K, x2 = 0.4998	832.57	1.316
293.15 K, x2 = 0.5999	822.32	1.177
293.15 K, x2 = 0.6999	811	1.051
293.15 K, x2 = 0.8	798.51	0.933
293.15 K, x2 = 0.9	784.68	0.825
298.15 K, x2 = 0	868.16	1.909
298.15 K, x2 = 0.0999	861.49	1.758
298.15 K, x2 = 0.2	854.23	1.613
298.15 K, x2 = 0.3	846.38	1.473
298.15 K, x2 = 0.4001	837.84	1.339
298.15 K, x2 = 0.4998	828.47	1.209
298.15 K, x2 = 0.5999	818.2	1.084
298.15 K, x2 = 0.6999	806.84	0.969
298.15 K, x2 = 0.8	794.31	0.862
298.15 K, x2 = 0.9	780.43	0.765
303.15 K, x2 = 0	864.06	1.738
303.15 K, x2 = 0.0999	857.38	1.603
303.15 K, x2 = 0.2	850.12	1.474
303.15 K, x2 = 0.3	842.25	1.35
303.15 K, x2 = 0.4001	833.72	1.232
303.15 K, x2 = 0.4998	824.32	1.12
303.15 K, x2 = 0.5999	814.03	1.012
303.15 K, x2 = 0.6999	802.63	0.907
303.15 K, x2 = 0.8	790.09	0.807
303.15 K, x2 = 0.9	776.16	0.716
308.15 K, x2 = 0	859.96	1.588
308.15 K, x2 = 0.0999	853.28	1.47
308.15 K, x2 = 0.2	846.01	1.357
308.15 K, x2 = 0.3	838.14	1.247
308.15 K, x2 = 0.4001	829.57	1.142
308.15 K, x2 = 0.4998	820.17	1.038
308.15 K, x2 = 0.5999	809.84	0.937
308.15 K, x2 = 0.6999	798.43	0.843
308.15 K, x2 = 0.8	785.85	0.754
308.15 K, x2 = 0.9	771.88	0.673
313.15 K, x2 = 0	855.85	1.453
313.15 K, x2 = 0.0999	849.16	1.351
313.15 K, x2 = 0.2	841.89	1.251
313.15 K, x2 = 0.3	834.02	1.152
313.15 K, x2 = 0.4001	825.43	1.057
313.15 K, x2 = 0.4998	816.01	0.963
313.15 K, x2 = 0.5999	805.67	0.872
313.15 K, x2 = 0.6999	794.22	0.787
313.15 K, x2 = 0.8	781.6	0.707
313.15 K, x2 = 0.9	767.57	0.631
318.15 K, x2 = 0	851.74	1.341
318.15 K, x2 = 0.0999	845.04	1.252
318.15 K, x2 = 0.2	837.76	1.161
318.15 K, x2 = 0.3	829.87	1.072
318.15 K, x2 = 0.4001	821.28	0.986
318.15 K, x2 = 0.4998	811.84	0.904
318.15 K, x2 = 0.5999	801.47	0.822
318.15 K, x2 = 0.6999	789.99	0.743
318.15 K, x2 = 0.8	777.33	0.668
318.15 K, x2 = 0.9	763.25	0.598
323.15 K, x2 = 0	847.62	1.245
323.15 K, x2 = 0.0999	840.91	1.163
323.15 K, x2 = 0.2	833.62	1.083
323.15 K, x2 = 0.3	825.72	1.003
323.15 K, x2 = 0.4001	817.11	0.925
323.15 K, x2 = 0.4998	807.66	0.847
323.15 K, x2 = 0.5999	797.25	0.772
323.15 K, x2 = 0.6999	785.75	0.7
323.15 K, x2 = 0.8	773.05	0.632
323.15 K, x2 = 0.9	758.92	0.567
